# Data taken from patent US20240262832A1, “SMALL MOLECULE MODULATORS OF GLUCOCEREBROSIDASE ACTIVITY AND USES THEREOF” (Vanqua Bio, Inc., priority 2021, published 2024).
# Target: T1, GCase (Homo sapiens, UniProt P04062)
# T1 construct: endogenous in cells; host or cells: HeLa cells
# T1 sequence (P04062 40-536): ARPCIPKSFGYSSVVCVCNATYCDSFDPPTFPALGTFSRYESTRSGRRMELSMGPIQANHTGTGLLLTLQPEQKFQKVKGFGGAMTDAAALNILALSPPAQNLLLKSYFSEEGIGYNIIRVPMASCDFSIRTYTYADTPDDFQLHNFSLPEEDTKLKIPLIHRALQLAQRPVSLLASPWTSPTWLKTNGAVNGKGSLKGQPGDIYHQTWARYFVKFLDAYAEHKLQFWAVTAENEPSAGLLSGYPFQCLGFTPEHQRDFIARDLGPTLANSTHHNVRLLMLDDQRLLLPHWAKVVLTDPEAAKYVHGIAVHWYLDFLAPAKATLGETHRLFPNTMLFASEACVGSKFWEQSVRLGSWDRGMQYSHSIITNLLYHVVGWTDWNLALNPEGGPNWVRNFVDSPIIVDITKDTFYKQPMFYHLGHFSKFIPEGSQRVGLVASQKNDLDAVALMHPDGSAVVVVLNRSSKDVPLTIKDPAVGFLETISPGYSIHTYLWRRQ
# Assay: activation of GCase in a live cell PFB assay in HELA cells
# Format: cell-based
row,EC50 [µM],Compound
1,< 10,"FC(F)(F)c1cccc(OC[C@@H]2[C@H]3CN(c4cncc(-c5nncs5)n4)C[C@@H]23)n1 [Compound 60, (1R,5S,6S)-3-[6-(1,3,4-thiadiazol-2-yl)pyrazin-2-yl]-6-({[6-(trifluoromethyl)pyridin-2-yl]oxy}methyl)-3-azabicyclo[3.1.0]hexane]"
2,10 to 50,"FC(F)(F)c1cccc(OCC2CN(c3cncc(-c4nncs4)n3)CCC2(F)F)n1 (stereo not shown) [Compound 64, 2-[4,4-Difluoro-3-({[6-(trifluoromethyl)pyridin-2-yl]oxy}methyl)piperidin-1-yl]-6-(1,3,4-thiadiazol-2-yl)pyrazine]"
3,< 10,"FC1(COc2cccc(C(F)(F)F)n2)CCCN(c2cncc(-c3nncs3)n2)C1 (stereo not shown) [Compound 65, 2-[3-Fluoro-3-({[6-(trifluoromethyl)pyridin-2-yl]oxy}methyl)piperidin-1-yl]-6-(1,3,4-thiadiazol-2-yl)pyrazine]"
4,10 to 50,"CC(CC1CCCN(c2cnc3cnn(CC(F)F)c3n2)C1)c1ccccc1C(F)(F)F (stereo not shown) [Compound 66, 1-(2,2-Difluoroethyl)-6-(3-(2-(2-(trifluoromethyl)phenyl)propyl)piperidin-1-yl)-1H-pyrazolo[3,4-b]pyrazine]"

# The remaining lines, values behind:
row,Compound,EC50 [µM]
1,"Cn1c(-c2ccc(F)cc2)cc2ncc(C(=O)N3CCCC(COc4cccnc4C(F)(F)F)C3)nc21 (stereo not shown) [Compound 58, (6-(4-fluorophenyl)-5-methyl-5H-pyrrolo[2,3-b]pyrazin-3-yl)(3-(((2-(trifluoromethyl)pyridin-3-yl)oxy)methyl)piperidin-1-yl)methanone]",10 to 50
2,"FC(F)Cn1ncc2ncc(N3CCCC(COc4cccnc4Cl)C3)nc21 (stereo not shown) [Compound 59, 2-Chloro-3-({1-[1-(2,2-difluoroethyl)pyrazolo[3,4-b]pyrazin-6-yl]piperidin-3-yl}methoxy) pyridine]",< 10
3,"FC(F)Cn1ncc2ncc(N3C[C@@H]4[C@@H](COc5ccc(C(F)(F)F)cn5)[C@@H]4C3)nc21 [Compound 61, (1R,5S,6S)-3-[1-(2,2-difluoroethyl)-1H-pyrazolo[3,4-b]pyrazin-6-yl]-6-({[5-(trifluoromethyl)pyridin-2-yl]oxy}methyl)-3-azabicyclo[3.1.0]hexane]",10 to 50
4,"FC(F)Cn1ncc2ncc(N3C[C@@H]4[C@@H](COc5cncc(C(F)(F)F)c5)[C@@H]4C3)nc21 [Compound 62, (1R,5S,6S)-3-[1-(2,2-difluoroethyl)-1H-pyrazolo[3,4-b]pyrazin-6-yl]-6-({[5-(trifluoromethyl)pyridin-3-yl]oxy}methyl)-3-azabicyclo[3.1.0]hexane]",10 to 50
5,"FC(F)Cn1ncc2ncc(N3C[C@@H]4[C@@H](COc5ccc(C(F)(F)F)nc5)[C@@H]4C3)nc21 [Compound 63, (1R,5S,6S)-3-[1-(2,2-difluoroethyl)-1H-pyrazolo[3,4-b]pyrazin-6-yl]-6-({[6-(trifluoromethyl)pyridin-3-yl]oxy}methyl)-3-azabicyclo[3.1.0]hexane]",10 to 50
6,"Cc1ccccc1OCC1CCCN(C(=O)c2cnc3c(cnn3-c3ccccc3)n2)C1 (stereo not shown) [Compound 67, (1-phenyl-1H-pyrazolo[3,4-b]pyrazin-5-yl)(3-((o-tolyloxy)methyl)piperidin-1-yl)methanone]",10 to 50
7,"Cn1c(-c2ccccc2)cc2nc(C(=O)N3CCCC(COc4cccnc4C(F)(F)F)C3)cnc21 (stereo not shown) [Compound 68, (5-methyl-6-phenyl-5H-pyrrolo[2,3-b]pyrazin-2-yl)(3-(((2-(trifluoromethyl)pyridin-3-yl)oxy)methyl)piperidin-1-yl)methanone]",10 to 50
8,"FC(F)Cn1ncc2ncc(N3CCCC(COc4nccnc4Cl)C3)nc21 (stereo not shown) [Compound 69, 6-(3-(((3-Chloropyrazin-2-yl)oxy)methyl)piperidin-1-yl)-1-(2,2-difluoroethyl)-1H-pyrazolo[3,4-b]pyrazine]",> 100
9,"CC(=O)N1CCC(c2cc3ncc(N4CCCC(COc5cccnc5C(F)(F)F)C4)nc3n2C)CC1 (stereo not shown) [Compound 73, 1-(4-(5-methyl-3-(3-(((2-(trifluoromethyl)pyridin-3-yl)oxy)methyl)piperidin-1-yl)-5H-pyrrolo[2,3-b]pyrazin-6-yl)piperidin-1-yl)ethan-1-one]",< 10
